Like-named read-outs stand apart in the source and are kept apart here. Values belong to the compound of their own block, whether it stands above or below them.
What was measured:
[1] = Miscibility/solubility in heptane and water
Text: The miscibility/solubility of all ionic liquids in both heptane and water are indicated as well.
The solubility behavior of all thirty-nine geminal dicationic ionic liquids in water and heptane also was explored.

[2] = Solvation interaction parameters by inverse gas-liquid chromatography (Abraham model); format: physicochemical
Procedure: The preparation of the capillary columns for inverse gas-liquid chromatographic analysis was performed using a previously described procedure. All capillary columns had efficiencies between 2100 to 2500 plates/meter. Characterization of the capillary columns and probe molecule descriptions are listed in supplemental information. Multiple linear regression analysis (MLRA) and statistical calculations were performed using the program Analyse-it (Microsoft, USA).
Solvation Characteristics. We have previously reported that the Abraham solvation model, a linear free energy approach that utilizes inverse gas-liquid chromatography to describe the solvation properties of a liquid, can be used to characterize room temperature ionic liquids. Described by equation 1, the model provides the so-called “interaction parameters” (r, s, a, b, l) by using multiple linear regression analysis to fit the retention factor (k, determined chromatographically) to the solute descriptors (R2, π2^Hα2H, β2^H, log L^16) for a wide variety of probe solute molecules. […]
Previously we characterized a large number of room temperature ionic liquids in terms of multiple solvation interactions using the solvation parameter model, shown in equation log k=c+rR2+sπ2^H+aα2^H+bβ2^H+l log L^16 [3] This approach utilizes inverse gas-liquid chromatography and allows the use of a large number of probe molecules to deconvolute solute retention in terms of the type and magnitude of individual solvation interactions. The solute descriptors (R2, π2^H, α2^H, .β2^H, log L^16) from Equation 3 are obtained from the literature for many probe molecules containing a variety of functional groups. The retention factor is determined chromatographically. The solute descriptors and retention factors are subjected to multiple linear regression analysis to obtain the interaction parameter coefficients (r, s, a, b, l), which ultimately characterize the stationary phase: r is the ability of the diionic liquid containing-stationary phase to interact with .π0 and n electrons of the solute, s is a measure of the dipolarity/polarizability of the diionic liquid containing-stationary phase, a defines the diionic liquid containing-stationary phase hydrogen bond basicity, b is a measure of the hydrogen bond acidity, and l refers to the ability of the diionic liquid containing-stationary phase to separate adjacent members of a homologous series.
Test solutes used to determine interaction parameters and solvation thermodynamics were dissolved in dichloromethane. […] Split injection and flame ionization detection were utilized with injection and detection temperatures of 250° C. Helium was used as the carrier gas with a column inlet pressure of 3.1 psi and flow rate of 1.0 mL/min. Methane was used to determine the dead volume of the column. Multiple linear regression analysis and statistical calculations were performed using the program Analyze-it (Microsoft).

[3] = values taken from reference 31, cited from earlier work

- Miscibility with Heptane [1]: Immiscible
- Miscibility with Water [1]: Miscible
Compound: 1,3-di(2,3-dimethylimidaolium)propane di-bromide [C3(m2im)2-Br]

- Miscibility with Heptane [1]: Immiscible
- Miscibility with Water [1]: Immiscible
Compound: 1,3-di(2,3-dimethylimidazolium)propane di-hexafluorophosphate [C3(m2im)2-PF6]

Compound: CCCCn1cc[n+](C)c1.O=S(=O)([N-]S(=O)(=O)C(F)(F)F)C(F)(F)F [BMIM-NTf2, 1-butyl-3-methylimidazolium bis[(trifluoromethylsulfonyl)imide], reference compound]
- Interaction parameter a (hydrogen bond basicity) ([2]; 40° C.): 2.02
- Interaction parameter b (hydrogen bond acidity) ([2]; 40° C.): 0.36
- Interaction parameter c ([2]; 40° C.): −2.87
- Interaction parameter l (dispersion forces) ([2]; 40° C.): 0.63
- Interaction parameter r (interaction via nonbonding and π-electrons) ([2]; 40° C.): 0
- Interaction parameter s (dipolarity/polarizability) ([2]; 40° C.): 1.89
- Interaction parameter a (hydrogen bond basicity) ([2]; 70° C.): 1.75
- Interaction parameter b (hydrogen bond acidity) ([2]; 70° C.): 0.38
- Interaction parameter c ([2]; 70° C.): −3.03
- Interaction parameter l (dispersion forces) ([2]; 70° C.): 0.56
- Interaction parameter r (interaction via nonbonding and π-electrons) ([2]; 70° C.): 0
- Interaction parameter s (dipolarity/polarizability) ([2]; 70° C.): 1.67
- Interaction parameter a (hydrogen bond basicity) ([2]; 100° C.): 1.55
- Interaction parameter b (hydrogen bond acidity) ([2]; 100° C.): 0.24
- Interaction parameter c ([2]; 100° C.): −3.13
- Interaction parameter l (dispersion forces) ([2]; 100° C.): 0.49
- Interaction parameter r (interaction via nonbonding and π-electrons) ([2]; 100° C.): 0
- Interaction parameter s (dipolarity/polarizability) ([2]; 100° C.): 1.60

Compound: CCCC[N+]1(C)CCCC1.O=S(=O)([N-]S(=O)(=O)C(F)(F)F)C(F)(F)F [BMPY-NTf2, 1-butyl-1-methylpyrrolidinium bis[(trifluoromethylsulfonyl)imide]]
- Interaction parameter a (hydrogen bond basicity) ([3]; 40° C.): 2.08
- Interaction parameter b (hydrogen bond acidity) ([3]; 40° C.): 0.16
- Interaction parameter c ([3]; 40° C.): −2.78
- Interaction parameter l (dispersion forces) ([3]; 40° C.): 0.68
- Interaction parameter r (interaction via nonbonding and π-electrons) ([3]; 40° C.): 0
- Interaction parameter s (dipolarity/polarizability) ([3]; 40° C.): 1.69
- Interaction parameter a (hydrogen bond basicity) ([3]; 70° C.): 1.78
- Interaction parameter b (hydrogen bond acidity) ([3]; 70° C.): 0
- Interaction parameter c ([3]; 70° C.): −2.80
- Interaction parameter l (dispersion forces) ([3]; 70° C.): 0.56
- Interaction parameter r (interaction via nonbonding and π-electrons) ([3]; 70° C.): 0
- Interaction parameter s (dipolarity/polarizability) ([3]; 70° C.): 1.53
- Interaction parameter a (hydrogen bond basicity) ([3]; 100° C.): 1.55
- Interaction parameter b (hydrogen bond acidity) ([3]; 100° C.): 0
- Interaction parameter c ([3]; 100° C.): −2.92
- Interaction parameter l (dispersion forces) ([3]; 100° C.): 0.48
- Interaction parameter r (interaction via nonbonding and π-electrons) ([3]; 100° C.): 0
- Interaction parameter s (dipolarity/polarizability) ([3]; 100° C.): 1.44

Compound: Cn1cc[n+](CCC[n+]2ccn(C)c2)c1.F[B-](F)(F)F.F[B-](F)(F)F [C3(mim)2-BF4, 1,3-di(3-methylimidazolium)propane di-tetrafluoroborate]
- Miscibility with Heptane [1]: Immiscible
- Miscibility with Water [1]: Miscible

Compound: Cn1cc[n+](CCC[n+]2ccn(C)c2)c1.[Br-].[Br-] [C3(mim)2-Br, 1,3-di(3-methylimidazolium)propane di-bromide]
- Miscibility with Heptane [1]: Immiscible
- Miscibility with Water [1]: Miscible

Compound: Cn1cc[n+](CCC[n+]2ccn(C)c2)c1.F[P-](F)(F)(F)(F)F.F[P-](F)(F)(F)(F)F [C3(mim)2-PF6, 1,3-di(3-methylimidazolium)propane di-hexafluorophosphate]
- Miscibility with Heptane [1]: Immiscible
- Miscibility with Water [1]: Immiscible

Compound: C[N+]1(CCC[N+]2(C)CCCC2)CCCC1.F[P-](F)(F)(F)(F)F.F[P-](F)(F)(F)(F)F [C3(mpy)2-PF6, 1,3-di(methylpyrrolidinium)propane di-hexafluorophosphate]
- Miscibility with Heptane [1]: Immiscible
- Miscibility with Water [1]: Immiscible

Compound: C[n+]1ccn(CCCCn2cc[n+](C)c2)c1.O=S(=O)([N-]S(=O)(=O)C(F)(F)F)C(F)(F)F.O=S(=O)([N-]S(=O)(=O)C(F)(F)F)C(F)(F)F [C4(mim)2-NTf2]
- Interaction parameter a (hydrogen bond basicity) ([2]; 40° C.): 2.11
- Interaction parameter b (hydrogen bond acidity) ([2]; 40° C.): 0.50
- Interaction parameter c ([2]; 40° C.): −2.94
- Interaction parameter l (dispersion forces) ([2]; 40° C.): 0.56
- Interaction parameter r (interaction via nonbonding and π-electrons) ([2]; 40° C.): 0.25
- Interaction parameter s (dipolarity/polarizability) ([2]; 40° C.): 2.01
- Interaction parameter a (hydrogen bond basicity) ([2]; 70° C.): 1.77
- Interaction parameter b (hydrogen bond acidity) ([2]; 70° C.): 0.45
- Interaction parameter c ([2]; 70° C.): −2.91
- Interaction parameter l (dispersion forces) ([2]; 70° C.): 0.44
- Interaction parameter r (interaction via nonbonding and π-electrons) ([2]; 70° C.): 0.22
- Interaction parameter s (dipolarity/polarizability) ([2]; 70° C.): 1.78
- Interaction parameter a (hydrogen bond basicity) ([2]; 100° C.): 1.57
- Interaction parameter b (hydrogen bond acidity) ([2]; 100° C.): 0.33
- Interaction parameter c ([2]; 100° C.): −3.06
- Interaction parameter l (dispersion forces) ([2]; 100° C.): 0.37
- Interaction parameter r (interaction via nonbonding and π-electrons) ([2]; 100° C.): 0.20
- Interaction parameter s (dipolarity/polarizability) ([2]; 100° C.): 1.69

Compound: Cn1cc[n+](CCCCCCCCC[n+]2ccn(C)c2)c1.O=S(=O)([N-]S(=O)(=O)C(F)(F)F)C(F)(F)F.O=S(=O)([N-]S(=O)(=O)C(F)(F)F)C(F)(F)F [C9(mim)2-NTf2, 1,9-di(3-methylimidazolium)nonane di-bis[(trifluoromethyl)sulfonyl]imidate]
- Interaction parameter a (hydrogen bond basicity) ([2]; 40° C.): 1.83
- Interaction parameter b (hydrogen bond acidity) ([2]; 40° C.): 0.47
- Interaction parameter c ([2]; 40° C.): −2.86
- Interaction parameter l (dispersion forces) ([2]; 40° C.): 0.62
- Interaction parameter r (interaction via nonbonding and π-electrons) ([2]; 40° C.): 0.16
- Interaction parameter s (dipolarity/polarizability) ([2]; 40° C.): 1.81
- Interaction parameter a (hydrogen bond basicity) ([2]; 70° C.): 1.75
- Interaction parameter b (hydrogen bond acidity) ([2]; 70° C.): 0.20
- Interaction parameter c ([2]; 70° C.): −2.95
- Interaction parameter l (dispersion forces) ([2]; 70° C.): 0.51
- Interaction parameter r (interaction via nonbonding and π-electrons) ([2]; 70° C.): 0.11
- Interaction parameter s (dipolarity/polarizability) ([2]; 70° C.): 1.76
- Interaction parameter a (hydrogen bond basicity) ([2]; 100° C.): 1.50
- Interaction parameter b (hydrogen bond acidity) ([2]; 100° C.): 0.15
- Interaction parameter c ([2]; 100° C.): −3.06
- Interaction parameter l (dispersion forces) ([2]; 100° C.): 0.43
- Interaction parameter r (interaction via nonbonding and π-electrons) ([2]; 100° C.): 0.11
- Interaction parameter s (dipolarity/polarizability) ([2]; 100° C.): 1.64

Compound: [Br-].[Br-].c1ccc(Cn2cc[n+](CCCCCCCCCCCC[n+]3ccn(Cc4ccccc4)c3)c2)cc1 [C12(benzim)2-Br, 1,12-di(3-benzylimidazolium)dodecane di-bromide]
- Miscibility with Water ([1]; listed as 28): insoluble in water

Compound: O=S(=O)([N-]S(=O)(=O)C(F)(F)F)C(F)(F)F.O=S(=O)([N-]S(=O)(=O)C(F)(F)F)C(F)(F)F.c1ccc(Cn2cc[n+](CCCCCCCCCCCC[n+]3ccn(Cc4ccccc4)c3)c2)cc1 [C12(benzim)2-NTf2, 1,12-di(3-benzylimidazolium)dodecane di-bis[(trifluoromethyl)sulfonyl]imidate]
- Interaction parameter a (hydrogen bond basicity) ([2]; 40° C.): 1.96
- Interaction parameter b (hydrogen bond acidity) ([2]; 40° C.): 0.84
- Interaction parameter c ([2]; 40° C.): −2.94
- Interaction parameter l (dispersion forces) ([2]; 40° C.): 0.66
- Interaction parameter r (interaction via nonbonding and π-electrons) ([2]; 40° C.): 0.11
- Interaction parameter s (dipolarity/polarizability) ([2]; 40° C.): 1.65
- Interaction parameter a (hydrogen bond basicity) ([2]; 70° C.): 1.75
- Interaction parameter b (hydrogen bond acidity) ([2]; 70° C.): 0.57
- Interaction parameter c ([2]; 70° C.): −3.07
- Interaction parameter l (dispersion forces) ([2]; 70° C.): 0.56
- Interaction parameter r (interaction via nonbonding and π-electrons) ([2]; 70° C.): 0.07
- Interaction parameter s (dipolarity/polarizability) ([2]; 70° C.): 1.62
- Interaction parameter a (hydrogen bond basicity) ([2]; 100° C.): 1.44
- Interaction parameter b (hydrogen bond acidity) ([2]; 100° C.): 0.52
- Interaction parameter c ([2]; 100° C.): −3.12
- Interaction parameter l (dispersion forces) ([2]; 100° C.): 0.46
- Interaction parameter r (interaction via nonbonding and π-electrons) ([2]; 100° C.): 0
- Interaction parameter s (dipolarity/polarizability) ([2]; 100° C.): 1.47

From patent US8734673B2, “Boron selective ionic liquids and polymeric ionic liquids, methods of making and methods of use thereof” (The University of Toledo, priority 2008, dated 2014)
